# Laboratory results taken from ChEMBL document CHEMBL1125491, “Potential prodrug derivatives of 2',3'-didehydro-2',3'-dideoxynucleosides. Preparations and antiviral activities” (J Med Chem, 1992).
# Columns and labels:
# [1] = system: Human immunodeficiency virus 2; experiment: Concentration required to protect 50% of HIV-2 infected MT-4 cells against viral cytopathicity.; assay type: functional, organism-based; details: Human immunodeficiency virus 2, MT4
# MT4 = experiment: Concentration required to reduce the number of viable uninfected MT-4 cells by 50%.; assay type: functional; details: Homo sapiens
# [2] = system: Human immunodeficiency virus 1; experiment: Concentration required to protect 50% of HIV-1 infected MT-4 cells against viral cytopathicity.; assay type: functional, organism-based; details: Human immunodeficiency virus 1, MT4
SMILES,EC50 [1] [µM],CC50 (MT4) [µM],EC50 [2] [µM]
Nc1ncnc2c1ncn2[C@H]1CC[C@@H](CO)O1,72,> 100,41
CC1=CN([C@H]2C[C@H](OP(=O)(O)OC[C@@H]3C=C[C@H](n4ccc(N)nc4=O)O3)[C@@H](CO)O2)C(=O)NC1N (stereo partly specified),1.6,28,1.8
CC1=CN([C@H]2C[C@H](OP(=O)(O)OC[C@@H]3C=C[C@H](n4cnc5c(N)ncnc54)O3)[C@@H](CO)O2)C(=O)NC1N (stereo partly specified),29,198,26
Nc1ccn(C2C=CC(COP(O)(=S)c3ccccc3)O2)c(=O)n1 (stereo unspecified),> 500,> 500,> 500
COP(=O)(O)OCC1C=CC(n2cnc3c(N)ncnc32)O1 (stereo unspecified),58,168,38
COP(=O)(O)OCC1C=CC(n2ccc(N)nc2=O)O1 (stereo unspecified),1.7,27,3.1
Nc1ncnc2c1ncn2C1C=CC(COP(O)(=S)c2ccccc2)O1 (stereo unspecified),> 500,> 500,> 500
Nc1ncnc2c1ncn2C1C=CC(COP(=O)(O)Oc2ccccc2)O1 (stereo unspecified),37,157,24
Nc1ccn(C2C=CC(COP(=O)(O)Oc3ccccc3)O2)c(=O)n1 (stereo unspecified),1.5,35,1.9
Nc1ccn(C2C=CC(COP(=O)(O)c3ccccc3)O2)c(=O)n1 (stereo unspecified),136,> 500,111
Nc1ncnc2c1ncn2C1C=CC(COP(=O)(O)c2ccccc2)O1 (stereo unspecified),> 500,> 500,> 500
Nc1ccn([C@H]2CC[C@@H](CO)O2)c(=O)n1 [ZALCITABINE],0.69,30,0.91
